Data published in patent publication US20260315611A1, “LINKER COMPOUNDS AND LIGAND-DRUG CONJUGATES, PREPARATION METHODS AND USES THEREOF” (Biocytogen Pharmaceuticals (Beijing) Co., Ltd., priority 2023, published 2026).

What was measured:
[1] = system: D17; test: in vitro killing activity; format: cell-based, Dog; settings: Canis lupus familiaris, D17; 120 time of incubation
Description: (§1) Different concentrations of compounds CPT-1, CPT-2, CPT-3, CPT-4, Dxd (MedChem Express, Cat #: HY-13631D) and SN38 (MedChem Express, Cat #: HY-13704) were used to treat different human tumor cell lines, mice tumor cell lines, rat tumor cell lines or dog tumor cell lines cultured in a cell culture plate, respectively. And the killing activity was detected after 72 h-120 h incubation by IncuCyte (Sartorius AG, IncuCyte® S3) or MicroplateReader.

[2] = system: MP-0094-2; test: in vitro killing activity; format: cell-based, Dog; settings: Canis lupus familiaris; 120 time of incubation
Description: as §1

[3] = system: MP-1044-1; test: in vitro killing activity; format: cell-based, Dog; settings: Canis lupus familiaris; 72 time of incubation
Description: as §1

[4] = system: MP-1092-1; test: in vitro killing activity; format: cell-based, Dog; settings: Canis lupus familiaris; 120 time of incubation
Description: as §1

[5] = system: CMT-U27; test: in vitro killing activity; format: cell-based, Dog; settings: Canis lupus familiaris; 120 time of incubation
Description: as §1

[6] = system: DCOL1 (S+L−); test: in vitro killing activity; format: cell-based, Dog; settings: Canis lupus familiaris; 120 time of incubation
Description: as §1

[7] = system: MP-0094-3; test: in vitro killing activity; format: cell-based, Dog; settings: Canis lupus familiaris; 120 time of incubation
Description: as §1

[8] = system: MC38; test: in vitro killing activity; format: cell-based, Mice; settings: Mus musculus, MC-38; 120 time of incubation
Description: as §1

[9] = system: CT26; test: in vitro killing activity; format: cell-based, Mice; settings: Mus musculus, CT26; 96 time of incubation
Description: as §1

[10] = system: B16F10; test: in vitro killing activity; format: cell-based, Mice; settings: Mus musculus, B16-F10; 75 time of incubation
Description: as §1

[11] = system: A-431; test: in vitro killing activity; format: cell-based, Human; settings: Homo sapiens, A-431; 120 time of incubation
Description: as §1

[12] = system: BT474; test: in vitro killing activity; format: cell-based, Human; settings: Homo sapiens, BT-474; 120 time of incubation
Description: as §1

[13] = system: NCI-N87; test: in vitro killing activity; format: cell-based, Human; settings: Homo sapiens, NCI-N87; 120 time of incubation
Description: as §1

[14] = system: NCI-H69; test: in vitro killing activity; format: cell-based, Human; settings: Homo sapiens, NCI-H69; 120 time of incubation
Description: as §1

[15] = system: PC-3; test: in vitro killing activity; format: cell-based, Human; settings: Homo sapiens, PC-3; 120 time of incubation
Description: as §1

[16] = system: NCI-H226; test: in vitro killing activity; format: cell-based, Human; settings: Homo sapiens, NCI-H226; 120 h incubation
Description: as §1

[17] = system: OVKATE; test: in vitro killing activity; format: cell-based, Human; settings: Homo sapiens; 120 time of incubation
Description: as §1

[18] = system: SW620; test: in vitro killing activity; format: cell-based, Human; settings: Homo sapiens, SW-620; 120 h incubation
Description: as §1

[19] = system: HS-746T; test: in vitro killing activity; format: cell-based, Human; settings: Homo sapiens, Hs746T; 120 time of incubation
Description: as §1

[20] = system: LOVO; test: in vitro killing activity; format: cell-based, Human; settings: Homo sapiens, LoVo; 120 h incubation
Description: as §1

[21] = system: SW156; test: in vitro killing activity; format: cell-based, Human; settings: Homo sapiens; 120 time of incubation
Description: as §1

[22] = system: NCI-H2030; test: in vitro killing activity; format: cell-based, Human; settings: Homo sapiens, NCI-H2030; 120 time of incubation
Description: as §1

[23] = system: NCI-H1781; test: in vitro killing activity; format: cell-based, Human; settings: Homo sapiens, NCI-H1781; 120 time of incubation
Description: as §1

[24] = system: U-2-OS; test: in vitro killing activity; format: cell-based, Human; settings: Homo sapiens, U2OS; 120 time of incubation
Description: as §1

[25] = system: Panc 02.03; test: in vitro killing activity; format: cell-based, Human; settings: Homo sapiens, Panc 02.03; 120 time of incubation
Description: as §1

[26] = system: BxPC-3; test: in vitro killing activity; format: cell-based, Human; settings: Homo sapiens, BXPC-3; 120 time of incubation
Description: as §1

[27] = system: HuH-7; test: in vitro killing activity; format: cell-based, Human; settings: Homo sapiens, Huh-7; 120 h incubation
Description: as §1

[28] = system: Hela; test: in vitro killing activity; format: cell-based, Human; settings: Homo sapiens, HeLa; 120 h incubation
Description: as §1

[29] = system: HCC1954; test: in vitro killing activity; format: cell-based, Human; settings: Homo sapiens, HCC1954; 120 time of incubation
Description: as §1

[30] = system: NCI-H1975; test: in vitro killing activity; format: cell-based, Human; settings: Homo sapiens, NCI-H1975; 120 time of incubation
Description: as §1

[31] = system: SKOV-3; test: in vitro killing activity; format: cell-based, Human; settings: Homo sapiens, SK-OV-3; 120 time of incubation
Description: as §1

[32] = system: PC12; test: in vitro killing activity; format: cell-based, Rat; settings: Rattus norvegicus, PC-12; 120 time of incubation
Description: as §1

[33] = system: L6; test: in vitro killing activity; format: cell-based, Rat; settings: Rattus norvegicus, L6; 120 h incubation
Description: as §1

[34] = system: multiple cell lines; test: in vitro killing activity, multiple tumor cell lines; format: cell-based, human, mice, rat, dog
Description: as §1

| Structure (SMILES) | IC50 [1] [nM] | IC50 [2] [nM] | IC50 [3] [nM] | IC50 [4] [nM] | IC50 [5] [nM] | IC50 [6] [nM] | IC50 [7] [nM] | IC50 [8] [nM] | IC50 [9] [nM] | IC50 [10] [nM] | IC50 [11] [nM] | IC50 [12] [nM] | IC50 [13] [nM] | IC50 [14] [nM] | IC50 [15] [nM] | IC50 [16] [nM] | IC50 [17] [nM] | IC50 [18] [nM] | IC50 [19] [nM] | IC50 [20] [nM] | other results |
| --- | --- | --- | --- | --- | --- | --- | --- | --- | --- | --- | --- | --- | --- | --- | --- | --- | --- | --- | --- | --- | --- |
| CC[C@@]1(O)C(=O)OCc2c1cc1n(c2=O)Cc2c-1nc1ccc(N)c3c1c2CCO3 [CPT-2, (S)-4-amino-9-ethyl-9-hydroxy-1,9,12,15-tetrahydro-13H-pyrano[4,3,2-de]pyrano[3′,4′:6,7]indolizino[1,2-b]quinoline-10,13(2H)-dione] | 1.29 | 4.69 | 8.53 | 1.75 | 1.28 | 2.29 | 7.15 | 9.57 | 5.63 | 5.47 | 2.84 | 11.9 | 1.48 | 0.318 | 1.97 | 2.77 | 2.04 | 0.824 | 0.55 | 1.15 | IC50 [21]: 0.615 nM; IC50 [22]: 1.31 nM; IC50 [23]: 0.399 nM; IC50 [24]: 1.41 nM; IC50 [25]: 0.301 nM; IC50 [26]: 0.289 nM; IC50 [27]: 0.662 nM; IC50 [28]: 1.41 nM; IC50 [29]: 1.14 nM; IC50 [30]: 1.97 nM; IC50 [31]: 1.96 nM; IC50 [32]: 1.77 nM; IC50 [33]: 3.88 nM; in vitro killing activity [34]: good in vitro killing activity; tumor cell inhibition effect compared with Dxd and SN38 [34]: higher tumor cell inhibition effect than Dxd and SN38 |
| CC[C@@]1(O)C(=O)OCc2c1cc1n(c2=O)Cc2c-1nc1ccc(N)c3c1c2CCS3 [CPT-1] | 0.841 | 2.69 | 8.63 | 0.988 | 0.937 | 1.33 | 3.92 | 6.72 | 3.84 | 3.29 | 2.97 | 6.22 | 1.2 | 0.299 | 0.859 | 2.37 | 2.24 | 0.75 | 0.523 | 1.52 | IC50 [21]: 0.373 nM; IC50 [22]: 1.1 nM; IC50 [23]: 0.297 nM; IC50 [24]: 2.65 nM; IC50 [25]: 0.266 nM; IC50 [26]: 0.213 nM; IC50 [27]: 0.742 nM; IC50 [28]: 1.03 nM; IC50 [29]: 1.31 nM; IC50 [30]: 1.71 nM; IC50 [31]: 1.8 nM; IC50 [32]: 1.67 nM; IC50 [33]: 3.69 nM; in vitro killing activity [34]: good in vitro killing activity; tumor cell inhibition effect compared with Dxd and SN38 [34]: higher tumor cell inhibition effect than Dxd and SN38 |
